Measured values from PubChem BioAssay AID2060891 (Molecular Pharmacology Branch, DTP, NCI, 2025).

System: K98450-129-R-PDC complex spheroid growth, percent test/control
Experiment: Anticancer human tumor K98450-129-R-PDC patient-derived colon adenocarcinoma cell line growth inhibition [RAS]
Conditions: for IC50: curve of first compound; for viability, T/C: stronger effect = lower value
How it was run: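 Multi-cell-type spheroids: tumor cells plus HUVEC endothelial cells and mesenchymal stem cells. RAS-pathway inhibitors were combined with targeted agents, each dosed in half-log steps down from clinical Cmax, or from 10 microM when Cmax was unknown.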
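Also: spheroids exposed to agents for seven days before the viability readout.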
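For viability, T/C in this document: luminescence used as a proxy for viable cell amount.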

CC(=O)OC12COC1CC(O)C1(C)C(=O)C(O)C3=C(C)C(OC(=O)C(O)C(NC(=O)OC(C)(C)C)c4ccccc4)CC(O)(C(OC(=O)c4ccccc4)C21)C3(C)C (centres undefined) + C=CC(=O)N1CCN(c2nc(OCC3CCCN3C)nc3c(F)c(-c4nc(N)cc(C)c4C(F)(F)F)c(Cl)cc23)C(C)C1 was tested, and the IC50 (second compound 0.00316 µM) was 270 nM, the IC50 (second compound 0.01 µM) was 223 nM and the IC50 (second compound 0.0316 µM) was 151 nM. It also gave an IC50 (second compound 0.1 µM) of under 31.6 nM, an IC50 (second compound 0.316 µM) of under 31.6 nM and an IC50 (second compound 1 µM) of under 31.6 nM. For the same compound, the viability, T/C (second compound 0.00316 µM, first compound 0.0316 µM) was 91.4%, the viability, T/C (second compound 0.00316 µM, first compound 0.1 µM) was 83.6% and the viability, T/C (second compound 0.00316 µM, first compound 0.316 µM) was 44.3%. For the same compound, the viability, T/C (second compound 0.00316 µM, first compound 1 µM) was 27.3%, the viability, T/C (second compound 0.00316 µM, first compound 3.16 µM) was 23.6% and the viability, T/C (second compound 0.00316 µM, first compound 10 µM) was 22.6%. For the same compound, the viability, T/C (second compound 0.01 µM, first compound 0.0316 µM) was 88.2%, the viability, T/C (second compound 0.01 µM, first compound 0.1 µM) was 83.1% and the viability, T/C (second compound 0.01 µM, first compound 0.316 µM) was 35.4%. It also gave a viability, T/C (second compound 0.01 µM, first compound 1 µM) of 22.8%, a viability, T/C (second compound 0.01 µM, first compound 3.16 µM) of 20.8% and a viability, T/C (second compound 0.01 µM, first compound 10 µM) of 19.8%. For the same compound, the viability, T/C (second compound 0.0316 µM, first compound 0.0316 µM) was 71.7%, the viability, T/C (second compound 0.0316 µM, first compound 0.1 µM) was 62.4% and the viability, T/C (second compound 0.0316 µM, first compound 0.316 µM) was 27.7%. The viability, T/C (second compound 0.0316 µM, first compound 1 µM) was 17.4%, the viability, T/C (second compound 0.0316 µM, first compound 3.16 µM) was 16.7% and the viability, T/C (second compound 0.0316 µM, first compound 10 µM) was 15.6%. The viability, T/C (second compound 0.1 µM, first compound 0.0316 µM) was 50%, the viability, T/C (second compound 0.1 µM, first compound 0.1 µM) was 38.4% and the viability, T/C (second compound 0.1 µM, first compound 0.316 µM) was 16.3%. For the same compound, the viability, T/C (second compound 0.1 µM, first compound 1 µM) was 14.6%, the viability, T/C (second compound 0.1 µM, first compound 3.16 µM) was 14% and the viability, T/C (second compound 0.1 µM, first compound 10 µM) was 14.3%. For the same compound, the viability, T/C (second compound 0.316 µM, first compound 0.0316 µM) was 35.4%, the viability, T/C (second compound 0.316 µM, first compound 0.1 µM) was 26.4% and the viability, T/C (second compound 0.316 µM, first compound 0.316 µM) was 14%. The viability, T/C (second compound 0.316 µM, first compound 1 µM) was 12.4%, the viability, T/C (second compound 0.316 µM, first compound 3.16 µM) was 12.4% and the viability, T/C (second compound 0.316 µM, first compound 10 µM) was 12.2%. For the same compound, the viability, T/C (second compound 1 µM, first compound 0.0316 µM) was 26.3%, the viability, T/C (second compound 1 µM, first compound 0.1 µM) was 18.5% and the viability, T/C (second compound 1 µM, first compound 0.316 µM) was 13.7%. The viability, T/C (second compound 1 µM, first compound 1 µM) was 12.7%, the viability, T/C (second compound 1 µM, first compound 3.16 µM) was 12.4% and the viability, T/C (second compound 1 µM, first compound 10 µM) was 13.4%.
CCc1c2c(nc3ccc(O)cc13)-c1cc3c(c(=O)n1C2)COC(=O)[C@]3(O)CC + C=CC(=O)N1CCN(c2nc(OCC3CCCN3C)nc3c(F)c(-c4nc(N)cc(C)c4C(F)(F)F)c(Cl)cc23)C(C)C1 was tested, and the IC50 (second compound 0.00316 µM) was 28.1 nM, the IC50 (second compound 0.01 µM) was 16.6 nM and the IC50 (second compound 0.0316 µM) was 7 nM. For the same compound, the IC50 (second compound 0.1 µM) was 3.26 nM, the IC50 (second compound 0.316 µM) was under 0.949 nM and the IC50 (second compound 1 µM) was under 0.949 nM. The viability, T/C (second compound 0.00316 µM, first compound 0.000949 µM) was 93.5%, the viability, T/C (second compound 0.00316 µM, first compound 0.003 µM) was 87.7% and the viability, T/C (second compound 0.00316 µM, first compound 0.00949 µM) was 68.1%. For the same compound, the viability, T/C (second compound 0.00316 µM, first compound 0.03 µM) was 49.7%, the viability, T/C (second compound 0.00316 µM, first compound 0.0949 µM) was 34.1% and the viability, T/C (second compound 0.00316 µM, first compound 0.3 µM) was 27.6%. The viability, T/C (second compound 0.01 µM, first compound 0.000949 µM) was 86.7%, the viability, T/C (second compound 0.01 µM, first compound 0.003 µM) was 76.1% and the viability, T/C (second compound 0.01 µM, first compound 0.00949 µM) was 60.6%. For the same compound, the viability, T/C (second compound 0.01 µM, first compound 0.03 µM) was 39.1%, the viability, T/C (second compound 0.01 µM, first compound 0.0949 µM) was 29.2% and the viability, T/C (second compound 0.01 µM, first compound 0.3 µM) was 23.6%. For the same compound, the viability, T/C (second compound 0.0316 µM, first compound 0.000949 µM) was 74.5%, the viability, T/C (second compound 0.0316 µM, first compound 0.003 µM) was 63.8% and the viability, T/C (second compound 0.0316 µM, first compound 0.00949 µM) was 46.1%. For the same compound, the viability, T/C (second compound 0.0316 µM, first compound 0.03 µM) was 24.1%, the viability, T/C (second compound 0.0316 µM, first compound 0.0949 µM) was 20.6% and the viability, T/C (second compound 0.0316 µM, first compound 0.3 µM) was 18%. The viability, T/C (second compound 0.1 µM, first compound 0.000949 µM) was 54.6%, the viability, T/C (second compound 0.1 µM, first compound 0.003 µM) was 53.3% and the viability, T/C (second compound 0.1 µM, first compound 0.00949 µM) was 33%. The viability, T/C (second compound 0.1 µM, first compound 0.03 µM) was 20.3%, the viability, T/C (second compound 0.1 µM, first compound 0.0949 µM) was 16.7% and the viability, T/C (second compound 0.1 µM, first compound 0.3 µM) was 11.7%. For the same compound, the viability, T/C (second compound 0.316 µM, first compound 0.000949 µM) was 38.1%, the viability, T/C (second compound 0.316 µM, first compound 0.003 µM) was 35.4% and the viability, T/C (second compound 0.316 µM, first compound 0.00949 µM) was 25.4%. The viability, T/C (second compound 0.316 µM, first compound 0.03 µM) was 16.6%, the viability, T/C (second compound 0.316 µM, first compound 0.0949 µM) was 15% and the viability, T/C (second compound 0.316 µM, first compound 0.3 µM) was 9.83%. For the same compound, the viability, T/C (second compound 1 µM, first compound 0.000949 µM) was 31.7%, the viability, T/C (second compound 1 µM, first compound 0.003 µM) was 30.3% and the viability, T/C (second compound 1 µM, first compound 0.00949 µM) was 23.6%. The viability, T/C (second compound 1 µM, first compound 0.03 µM) was 18.9%, the viability, T/C (second compound 1 µM, first compound 0.0949 µM) was 14.1% and the viability, T/C (second compound 1 µM, first compound 0.3 µM) was 8.49%.
